Assay results from ChEMBL document CHEMBL1201862, “PubChem BioAssay data set” (2004).
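Briefly, cells in 96-well plates were exposed to five compound concentrations for 48 h, and endpoints were estimated by linear interpolation. Abbreviation: GI50, concentration required for 50% inhibition of growth.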 Activity calls are given as the source filed them. No stated cut-off is given here; in the data, active = GI50 up to about 1.1 µM and inactive = higher.

How the values were obtained:
Test in all cases: NCI-60 cell line screen, 48 h
MDA-N = tested on: MDA-N
K562 = tested on: K562
SF-539 = tested on: SF-539
CAKI-1 = tested on: CAKI-1
SK-MEL-2 = tested on: SK-MEL-2
HCC 2998 = tested on: HCC 2998
SNB-78 = tested on: SNB-78
HCT-15 = tested on: HCT-15
COLO 205 = tested on: COLO 205
SNB-75 = tested on: SNB-75
OVCAR-4 = tested on: OVCAR-4
U-251 = tested on: U-251
HOP-92 = tested on: HOP-92
BT-549 = tested on: BT-549
NCI-H460 = tested on: NCI-H460
EKVX = tested on: EKVX
MDA-MB-435 = tested on: MDA-MB-435
Malme-3M = tested on: Malme-3M
A498 = tested on: A498
HOP-62 = tested on: HOP-62

Compound | GI50 (MDA-N) | GI50 (K562) | GI50 (SF-539) | GI50 (CAKI-1) | GI50 (SK-MEL-2) | GI50 (HCC 2998) | GI50 (SNB-78) | GI50 (HCT-15) | GI50 (COLO 205) | GI50 (SNB-75) | GI50 (OVCAR-4) | GI50 (U-251) | GI50 (HOP-92) | GI50 (BT-549) | GI50 (NCI-H460) | GI50 (EKVX) | GI50 (MDA-MB-435) | GI50 (Malme-3M) | GI50 (A498) | GI50 (HOP-62)
CN(O)C(=S)c1ccccc1 | 6.95 µM (inactive) | 0.347 µM (active) | 9.59 µM (inactive) | 4.25 µM (inactive) | 5.07 µM (inactive) | 6.34 µM (inactive) | 6.43 µM (inactive) | 2.47 µM | 0.379 µM (active) | 4.31 µM (inactive) | 1.88 µM (inactive) | 3.18 µM (inactive) | 5.25 µM (inactive) | > 100 µM (inactive) | 2.9 µM (inactive) | 15.5 µM (inactive) | 3.38 µM (inactive) | 7.82 µM (inactive) | 20.2 µM (inactive) | 11.4 µM (inactive)
O=C1c2ccccc2C(=O)c2c1ccc1c3ccccc3n(-c3ccccc3)c21 | 25 µM (inactive) | 6.61 µM (inactive) | 19.1 µM (inactive) | 18.2 µM (inactive) | 25.7 µM (inactive) | 46.6 µM (inactive) | 21.1 µM (inactive) | 16.1 µM | 16.9 µM (inactive) | 18.3 µM (inactive) | 18.8 µM (inactive) | 32.7 µM (inactive) | 4.84 µM (inactive) | 25.7 µM (inactive) | 27.2 µM (inactive) | 41.3 µM (inactive) | 9.31 µM (inactive) | 28.7 µM (inactive) | 46 µM (inactive) | 49.5 µM (inactive)
